In patent US20240009159A1, “ANTIVIRAL COMPOSITION FOR SARS-COV-2 AND HCOV-OC43 COMPRISING RHEIN, MECLOFENAMIC ACID, OR A COMBINATION THEREOF” (SEOUL NATIONAL UNIVERSITY R&DB FOUNDATION, priority 2020, published 2024):
Read-outs that look alike come from different tables or passages of the source.

Tests used:
SARS-CoV-2 [1] = type: cell-based; conditions: SARS-CoV-2-infected Calu-3 cells
HCoV-OC43 [2] = test: viral RNA level by qRT-PCR in HCoV-OC43-infected HCT-8 cells; type: cell-based, human coronavirus OC43 (HCoV-OC43)
HCoV-OC43 [3] = test: viral RNA level by qRT-PCR in HCoV-OC43-infected Vero cells; type: cell-based, human coronavirus OC43 (HCoV-OC43); conditions: for viral RNA level of N (normalized to GAPDH): control DMSO
SARS-CoV-2 [4] = type: cell-based; conditions: MA at 50 μM, treated two hours before infection; SARS-CoV-2-infected differentiated HBEC cells, 3.3×10^4 PFU; 48 hours after infection
SARS-CoV-2 [5] = type: cell-based; conditions: SARS-CoV-2-infected Vero cells
[6] = rhein at 25 μM, MOI 0.05, 24 hours after infection, control DMSO

Compound	viral RNA levels of nsp12, M, and N (normalized to GAPDH) compared with the control group (SARS-CoV-2 [1]; MA at 50 μM, control ethanol)	viral RNA level of N (normalized to GAPDH) (HCoV-OC43 [2]; MA at 50 μM, control DMSO and ethanol)	viral RNA level of N (normalized to GAPDH) (HCoV-OC43 [3]; MA at 10 μM, 25 μM, 50 μM, and 100 μM)	viral RNA levels (nsp12, M, and N, normalized to GAPDH) compared with the control group (SARS-CoV-2 [4])	viral RNA levels of nsp12, M, and N (normalized to GAPDH) compared with the control group (SARS-CoV-2 [5]; MA at 50 μM, control ethanol)	viral RNA levels of nsp12, M, and N (normalized to GAPDH) compared with the control group (SARS-CoV-2 [1]; [6])	viral RNA level of N (normalized to GAPDH) (HCoV-OC43 [2]; rhein at 250 μM and 25 μM, 24 hours after infection, control DMSO+Ethanol)	dose dependence of inhibition of the RNA level of N (HCoV-OC43 [3]; increasing concentration of rhein (5-50 μM), FIG. 1D)	viral RNA level of N (normalized to GAPDH) (HCoV-OC43 [3]; rhein at 5 μM, 10 μM, 25 μM, and 50 μM, 24 hours after infection)	viral RNA levels of nsp12, M, and N (normalized to GAPDH) compared with the control group (SARS-CoV-2 [5]; [6])
Cc1ccc(Cl)c(Nc2ccccc2C(=O)O)c1Cl [MA, meclofenamic acid]	less than 5%	significantly inhibited	significantly inhibited	≤ 40%	less than 5%	–	–	–	–	–
O=C(O)c1cc(O)c2c(c1)C(=O)c1cccc(O)c1C2=O [rhein, 4,5-dihydroxy-9,10-dioxoanthracene-2-carboxylic acid]	–	–	–	–	–	less than 5%	significantly inhibited	dose-dependent effect was confirmed	significantly inhibited	less than 30%
